Common to all, as to type: binding
Test [1] concerns the target T1, ATG2A (Homo sapiens, UniProt Q2TAZ0).
T1 construct: full-length (1938 residues); N-terminal GST cleaved by TEV, C-terminal TwinStrepII tag kept; expressed in Sf9 insect cells
Kind of test: lipid extraction from LUVs, Nycodenz flotation, native PAGE fluorescence. The settings on record: 20 mM HEPES pH 7.5, 150 mM NaCl, 1 mM TCEP; ~22 °C; 20% NBD-PE/80% DOPC LUVs; labelled compound.

The target of test [2] is T2, WIPI4 (Homo sapiens, UniProt Q9Y484).
T2 construct: gene WDR45; N-terminal 10xHis tag kept in flotation assays; expressed in Sf9 insect cells
T2 sequence (Q9Y484 1-360): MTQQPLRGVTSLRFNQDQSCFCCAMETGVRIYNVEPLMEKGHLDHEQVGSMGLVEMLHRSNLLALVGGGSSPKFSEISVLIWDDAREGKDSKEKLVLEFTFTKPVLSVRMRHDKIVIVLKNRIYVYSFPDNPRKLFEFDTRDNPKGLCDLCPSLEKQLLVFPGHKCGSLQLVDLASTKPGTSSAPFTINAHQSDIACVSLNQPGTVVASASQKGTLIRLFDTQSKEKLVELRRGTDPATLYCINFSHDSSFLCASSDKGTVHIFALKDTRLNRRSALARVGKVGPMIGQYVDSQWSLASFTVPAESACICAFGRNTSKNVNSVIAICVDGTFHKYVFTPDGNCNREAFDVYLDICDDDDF
Kind of test: liposome flotation, western blot. Conditions: 20 mM HEPES pH 7.5, 150 mM NaCl, 1 mM TCEP; LUVs with 5% PI3P versus without PI3P. On the technique in general: In western blotting, separated proteins are transferred to a membrane and probed.

Test [3] addresses T3, WIPI1 (Homo sapiens, UniProt Q5MNZ9).
T3 construct: residues 1-446; N-terminal 6xHis tag kept in flotation assays; expressed in Sf9 insect cells
T3 sequence (Q5MNZ9 1-446): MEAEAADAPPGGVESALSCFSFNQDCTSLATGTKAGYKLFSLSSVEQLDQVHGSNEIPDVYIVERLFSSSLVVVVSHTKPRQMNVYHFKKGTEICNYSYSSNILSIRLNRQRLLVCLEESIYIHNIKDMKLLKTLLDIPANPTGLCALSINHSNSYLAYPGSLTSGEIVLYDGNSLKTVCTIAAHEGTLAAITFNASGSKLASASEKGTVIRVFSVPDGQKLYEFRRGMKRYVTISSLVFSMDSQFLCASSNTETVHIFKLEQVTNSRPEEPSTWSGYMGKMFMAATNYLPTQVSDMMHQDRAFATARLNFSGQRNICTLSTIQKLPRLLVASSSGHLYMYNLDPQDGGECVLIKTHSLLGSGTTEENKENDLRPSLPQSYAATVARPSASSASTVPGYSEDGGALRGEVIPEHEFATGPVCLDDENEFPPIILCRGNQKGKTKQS
Kind of test: liposome flotation, western blot. The settings on record: 20 mM HEPES pH 7.5, 150 mM NaCl, 1 mM TCEP; LUVs with 5% PI3P versus without PI3P.

The structures appear in SMILES notation.

T1 sequence (Q2TAZ0 whole entry): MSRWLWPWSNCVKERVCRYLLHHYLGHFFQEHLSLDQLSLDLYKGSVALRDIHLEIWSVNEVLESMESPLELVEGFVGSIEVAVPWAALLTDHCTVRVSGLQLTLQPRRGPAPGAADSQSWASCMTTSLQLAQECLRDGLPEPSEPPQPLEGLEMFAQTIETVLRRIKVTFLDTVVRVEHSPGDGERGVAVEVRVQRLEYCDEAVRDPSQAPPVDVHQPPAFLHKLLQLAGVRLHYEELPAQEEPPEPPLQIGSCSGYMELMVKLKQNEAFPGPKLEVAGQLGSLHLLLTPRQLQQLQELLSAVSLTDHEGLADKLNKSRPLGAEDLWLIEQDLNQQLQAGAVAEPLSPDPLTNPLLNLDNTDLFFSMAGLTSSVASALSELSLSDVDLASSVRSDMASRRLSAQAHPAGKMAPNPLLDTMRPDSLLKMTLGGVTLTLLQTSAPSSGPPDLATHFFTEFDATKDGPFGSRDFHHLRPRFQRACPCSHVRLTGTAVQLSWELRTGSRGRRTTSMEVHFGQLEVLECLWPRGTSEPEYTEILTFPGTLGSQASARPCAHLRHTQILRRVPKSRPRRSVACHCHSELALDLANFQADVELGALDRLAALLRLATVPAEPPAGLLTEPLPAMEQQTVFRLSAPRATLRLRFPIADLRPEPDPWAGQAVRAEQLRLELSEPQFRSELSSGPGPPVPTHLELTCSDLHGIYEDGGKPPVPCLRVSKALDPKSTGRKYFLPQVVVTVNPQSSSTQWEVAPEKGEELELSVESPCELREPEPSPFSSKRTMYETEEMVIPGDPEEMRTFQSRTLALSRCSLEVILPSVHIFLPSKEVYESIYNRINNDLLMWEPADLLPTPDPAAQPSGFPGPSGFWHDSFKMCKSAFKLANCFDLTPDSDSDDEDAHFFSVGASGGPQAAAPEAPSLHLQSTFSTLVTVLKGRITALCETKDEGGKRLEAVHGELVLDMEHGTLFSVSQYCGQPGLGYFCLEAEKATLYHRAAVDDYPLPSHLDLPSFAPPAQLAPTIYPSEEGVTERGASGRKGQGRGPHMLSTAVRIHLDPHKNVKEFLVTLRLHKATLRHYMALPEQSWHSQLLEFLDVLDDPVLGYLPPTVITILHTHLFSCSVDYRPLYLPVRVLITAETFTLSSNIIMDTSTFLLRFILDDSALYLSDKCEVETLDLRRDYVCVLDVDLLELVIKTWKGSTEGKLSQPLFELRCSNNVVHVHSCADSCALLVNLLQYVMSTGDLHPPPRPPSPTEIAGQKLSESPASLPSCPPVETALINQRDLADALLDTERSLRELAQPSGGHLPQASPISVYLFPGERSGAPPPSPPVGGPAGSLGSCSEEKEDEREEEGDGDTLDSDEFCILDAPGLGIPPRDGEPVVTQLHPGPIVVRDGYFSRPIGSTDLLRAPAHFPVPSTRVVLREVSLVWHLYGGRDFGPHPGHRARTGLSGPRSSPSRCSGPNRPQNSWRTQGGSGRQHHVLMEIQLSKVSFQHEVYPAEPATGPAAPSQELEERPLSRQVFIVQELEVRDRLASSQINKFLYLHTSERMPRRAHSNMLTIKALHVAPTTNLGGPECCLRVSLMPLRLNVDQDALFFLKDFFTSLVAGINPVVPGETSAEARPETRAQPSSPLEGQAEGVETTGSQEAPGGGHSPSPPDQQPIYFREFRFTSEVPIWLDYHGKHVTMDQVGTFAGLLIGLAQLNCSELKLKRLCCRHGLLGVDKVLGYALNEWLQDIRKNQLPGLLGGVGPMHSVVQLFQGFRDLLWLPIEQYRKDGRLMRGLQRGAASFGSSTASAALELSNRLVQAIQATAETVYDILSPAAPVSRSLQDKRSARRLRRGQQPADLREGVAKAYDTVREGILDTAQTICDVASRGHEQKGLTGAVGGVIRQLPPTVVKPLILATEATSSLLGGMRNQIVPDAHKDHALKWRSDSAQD

Turning to `CCCCCCCC/C=C\CCCCCCCC(=O)OC[C@H](COP(=O)(O)OCCNc1ccc([N+](=O)[O-])c2nonc12)OC(=O)CCCCCCC/C=C\CCCCCCCC` [NBD-PE, 1,2-dioleoyl-sn-glycero-3-phosphoethanolamine-N-(7-nitro-2–1,3-benzoxadiazol-4-yl)], in test [1], the “lipid extraction from LUVs, Nycodenz flotation, native PAGE fluorescence” value is “ATG2A can extract NBD-PE from membranes and dissociate from the membrane with those lipids attached”.

In the case of `CCCCCCCC/C=C\CCCCCCCC(=O)OC[C@H](COP(=O)(O)O[C@@H]1[C@H](O)[C@H](OP(=O)(O)O)[C@@H](O)[C@H](O)[C@H]1O)OC(=O)CCCCCCC/C=C\CCCCCCCC` [PI3P], the “liposome flotation, western blot” value in test [2] and in test [3] was “both WIPIs bind to membranes in a PI3P-dependent manner” each time.

The values above are taken from PMC6625793, “The autophagic membrane tether ATG2A transfers lipids between membranes” (eLife, 2019).
